Data taken from US20120197004A1, “NOVEL ANTI-MICROBIAL PEPTIDOMIMETIC COMPOUNDS AND METHODS TO CALCULATE ANTI-MICROBIAL ACTIVITY” (priority 2006, published 2012).
Values after ≈ are worked out from the molar mass of the structure shown. Where two headings read alike, the source gives them in different places. Where a SMILES comes first, the peptide text is derived from it. [ ]: non-standard residue; d: D form. ξ: configuration not given here. Oic = O=C(O)[C@@H]1C[C@@H]2CCCC[C@@H]2N1; Tic = O=C(O)[C@@H]1Cc2ccccc2CN1; ξTic = O=C(O)C1Cc2ccccc2CN1; ξOic = O=C(O)C1CC2CCCCC2N1; Ahx = NCCCCCC(=O)O; GABA = NCCCC(=O)O

Legend:
[1] = tested on: Salmonella typhimurium (ATCC 13311); settings: for p(MIC) Salmonella typhimurium: -log(MIC)
[2] = tested on: Staphylococcus aureus Methicillin/Gentamicin/Tetracycline Resistant (ATCC 33592); settings: for p(MIC) Staphylococcus aureus ME/GM/TC resistant: -log(MIC); for MIC Staphylococcus aureus ME/GM/TC resistant: Minimal Inhibitory Concentration, tested at 100-0.1 in 1% DMSO; for Minimum Inhibitory Concentration Staphylococcus aureus ME/GM/TC resistant: in vitro MIC, tested at 100, 30, 10, 3, 1, 0.3 and 0.1 μM in 1% DMSO; for Actual Bioactivity: p(MIC) used in Staphylococcus aureus QSAR model
[3] = tested on: Mycobacterium ranae (ATCC 110)
[4] = tested on: Bacillus subtillis (ATCC 43223); settings: for p(MIC) Bacillus Subtillis: -log(MIC)
in vitro [5] = settings: monkey, microsomes, pH 7.4
in vitro [6] = settings: dog, microsomes, pH 7.4
in vitro [7] = settings: rat, microsomes, pH 7.4
in vitro [8] = settings: mouse, microsomes, pH 7.4

SMILES	p(MIC) Salmonella typhimurium [1]	MIC Salmonella typhimurium ([1]; ATCC 13311)	p(MIC) Staphylococcus aureus ME/GM/TC resistant [2]	MIC Staphylococcus aureus ME/GM/TC resistant [2]	Minimum Inhibitory Concentration Staphylococcus aureus ME/GM/TC resistant [2]	Actual Bioactivity [2]	Actual Bioactivity [3]	Minimum Inhibitory Concentration Mycobacterium ranae [3]	MIC Mycobacterium ranae ([3]; ATCC 110)	p(MIC) Bacillus Subtillis [4]	MIC Bacillus Subtillis ([4]; ATCC 43223)	% hemolysis 100/25 μM (first value) (red blood cells)	% hemolysis 100/25 μM (second value) (red blood cells)	Minimum Inhibitory Concentration Mycobacterium ranae ([3]; ATCC 110)	also measured
CC(=O)N[C@@H](Cc1ccccc1)C(=O)N1Cc2ccccc2C[C@H]1C(=O)N1[C@H](C(=O)N[C@@H](CCCCN)C(=O)N2Cc3ccccc3C[C@H]2C(=O)N2[C@H](C(=O)N[C@@H](Cc3ccccc3)C(=O)N3Cc4ccccc4C[C@H]3C(=O)N3[C@H](C(=O)N[C@@H](CCCCN)C(=O)N4Cc5ccccc5C[C@H]4C(=O)N[C@@H](CCCCN)C(=O)N[C@@H](CCCCN)C(=O)N[C@@H](CCCCN)C(=O)N[C@@H](CCCCN)C(=O)N[C@@H](CCCCN)C(=O)N[C@@H](CCCCN)C(N)=O)C[C@@H]4CCCC[C@@H]43)C[C@@H]3CCCC[C@@H]32)C[C@@H]2CCCC[C@@H]21 [FKAB-1Gc1, Ac-F-Tic-Oic-K-Tic-Oic-F-Tic-Oic-K-Tic-KKKKKK-CONH2] (Ac-F[Tic][Oic]K[Tic][Oic]F[Tic][Oic]K[Tic]KKKKKK-NH2)	5.00	10 µM (≈ 24.7 µg/mL)	5.52	3.00 µM (≈ 7.41 µg/mL)	3 µM	5.520	5.520	3 µM	3.00 µM (≈ 7.41 µg/mL)	6.00	1.00 µM (≈ 2.47 µg/mL)	41.3%/	33.5%		SA Activity ([2]; Staphylococcus aureus (SA), Table 30): 3; MR Activity [3]: 3 µM
CC(=O)N[C@@H](Cc1ccccc1)C(=O)N1Cc2ccccc2CC1C(=O)N1C(C(=O)N[C@@H](CCCCN)C(=O)N2Cc3ccccc3CC2C(=O)N2C(C(=O)N[C@@H](Cc3ccccc3)C(=O)N3Cc4ccccc4CC3C(=O)N3C(C(=O)N[C@@H](CCCCN)C(=O)N4Cc5ccccc5CC4C(=O)N[C@@H](CCCCN)C(=O)N[C@@H](CCCCN)C(=O)N[C@@H](CCCCN)C(=O)N[C@@H](CCCCN)C(N)=O)CC4CCCCC43)CC3CCCCC32)CC2CCCCC21 (stereo partly drawn) [FKAB-1Gc, Ac-F-Tic-Oic-K-Tic-Oic-F-Tic-Oic-K-Tic-KKKK-CONH2] (Ac-F[ξTic][ξOic]K[ξTic][ξOic]F[ξTic][ξOic]K[ξTic]KKKK-NH2)		10 µM (≈ 22.1 µg/mL)		3.00 µM (≈ 6.64 µg/mL)	3 µM				30.00 µM (≈ 66.4 µg/mL)		1.00 µM (≈ 2.21 µg/mL)	86.8%/	50%	30 µM	remaining at 0.25 h, 1 μM (in vitro [5]): 17%; remaining at 0.5 h, 1 μM (in vitro [5]): 24%; remaining at 1 h, 1 μM (in vitro [5]): 75%; remaining at 0.5 h, 1 μM (in vitro [6]): 14%; remaining at 1 h, 1 μM (in vitro [6]): 46%; remaining at 0.25 h, 1 μM (in vitro [7]): 73%; remaining at 0.5 h, 1 μM (in vitro [7]): 80%; remaining at 1 h, 1 μM (in vitro [7]): 107%; remaining at 0.25 h, 1 μM (in vitro [8]): 86%; remaining at 0.5 h, 1 μM (in vitro [8]): 10%; remaining at 1 h, 1 μM (in vitro [8]): 7%
CC(=O)NCCCCCC(=O)N[C@@H](Cc1ccccc1)C(=O)N1Cc2ccccc2C[C@H]1C(=O)N1[C@H](C(=O)NCCCCCC(=O)N[C@@H](CCCCN)C(=O)N2Cc3ccccc3C[C@H]2C(=O)N2[C@H](C(=O)NCCCCCC(=O)N[C@@H](Cc3ccccc3)C(=O)N3Cc4ccccc4C[C@H]3C(=O)N3[C@H](C(=O)NCCCCCC(=O)N[C@@H](CCCCN)C(=O)N4Cc5ccccc5C[C@H]4C(=O)N[C@@H](CCCCN)C(=O)N[C@@H](CCCCN)C(=O)N[C@@H](CCCCN)C(=O)N[C@@H](CCCCN)C(N)=O)C[C@@H]4CCCC[C@@H]43)C[C@@H]3CCCC[C@@H]32)C[C@@H]2CCCC[C@@H]21 [FKAB-1Gd2, Ac-Ahx-F-Tic-Oic-Ahx-K-Tic-Oic-Ahx-F-Tic-Oic-Ahx-K-Tic-KKKK-CONH2] (Ac-[Ahx]F[Tic][Oic][Ahx]K[Tic][Oic][Ahx]F[Tic][Oic][Ahx]K[Tic]KKKK-NH2)	5.00	10 µM (≈ 26.7 µg/mL)	5.00	10.00 µM (≈ 26.7 µg/mL)	10 µM	5.000	5.520		3.00 µM (≈ 8 µg/mL)	6.00	1.00 µM (≈ 2.67 µg/mL)	44.7%/	26.6%	3 µM	
NCCCC[C@H](NC(=O)[C@H](CCCCN)NC(=O)[C@H](CCCCN)NC(=O)[C@H](CCCCN)NC(=O)[C@@H]1Cc2ccccc2CN1C(=O)[C@H](CCCCN)NC(=O)CNC(=O)[C@@H]1C[C@@H]2CCCC[C@@H]2N1C(=O)[C@@H]1Cc2ccccc2CN1C(=O)[C@H](Cc1ccccc1)NC(=O)CNC(=O)[C@@H]1C[C@@H]2CCCC[C@@H]2N1C(=O)[C@@H]1Cc2ccccc2CN1C(=O)[C@H](CCCCN)NC(=O)CNC(=O)[C@@H]1C[C@@H]2CCCC[C@@H]2N1C(=O)[C@@H]1Cc2ccccc2CN1C(=O)[C@H](Cc1ccccc1)NC(=O)CN)C(N)=O [FKAB-1Ga, NH2--GF-Tic-Oic-GK-Tic-Oic-GF-Tic-Oic-GK-Tic-KKKK-CONH2] (H-GF[Tic][Oic]GK[Tic][Oic]GF[Tic][Oic]GK[Tic]KKKK-NH2)	5.52	3 µM (≈ 7.2 µg/mL)	5.00		10 µM	5.000	5.000		10.00 µM (≈ 24 µg/mL)	6.00	1.00 µM (≈ 2.4 µg/mL)	33.4%/	14.3%	10 µM	
CC(=O)NCC(=O)N[C@@H](Cc1ccccc1)C(=O)N1[C@H](C(=O)NCC(=O)N[C@@H](CCCCN)C(=O)N2[C@H](C(=O)NCC(=O)N[C@@H](Cc3ccccc3)C(=O)N3[C@H](C(=O)NCC(=O)N[C@@H](CCCCN)C(=O)N[C@@H](CCCCN)C(=O)N[C@@H](CCCCN)C(=O)N[C@@H](CCCCN)C(=O)N[C@@H](CCCCN)C(N)=O)C[C@@H]4CCCC[C@@H]43)C[C@@H]3CCCC[C@@H]32)C[C@@H]2CCCC[C@@H]21 [FKAB-1Gf, Ac-GF-Oic-GK-Oic-GF-Oic-GKKKKK-CONH2] (Ac-GF[Oic]GK[Oic]GF[Oic]GKKKKK-NH2)	4.00	100 µM (≈ 180 µg/mL)	0.00			0.000	4.000	100 μM/180 μg/mL	100.00 µM (≈ 180 µg/mL)	5.52	3.00 µM (≈ 5.41 µg/mL)	5.9%/	3.2%		Minimum Inhibitory Concentration Salmonella typhimurium ([1]; in vitro MIC): 180 µg/mL; Minimum Inhibitory Concentration Salmonella typhimurium ([1]; in vitro MIC, tested at 100, 30, 10, 3, 1, 0.3 and 0.1 μM in 1% DMSO): 100 µM; Minimum Inhibitory Concentration Bacillus subtillis ([4]; in vitro MIC): 5.4 µg/mL; % hemolysis 100/25 μM (first value) (red blood cells; 100 μM): 5.9%
CC(=O)NCCCC(=O)N[C@@H](Cc1ccccc1)C(=O)N1Cc2ccccc2C[C@H]1C(=O)N1[C@H](C(=O)NCCCC(=O)N[C@@H](CCCCN)C(=O)N2Cc3ccccc3C[C@H]2C(=O)N2[C@H](C(=O)NCCCC(=O)N[C@@H](Cc3ccccc3)C(=O)N3Cc4ccccc4C[C@H]3C(=O)N3[C@H](C(=O)NCCCC(=O)N[C@@H](CCCCN)C(=O)N4Cc5ccccc5C[C@H]4C(=O)N[C@@H](CCCCN)C(=O)N[C@@H](CCCCN)C(=O)N[C@@H](CCCCN)C(=O)N[C@@H](CCCCN)C(=O)N[C@@H](CCCCN)C(N)=O)C[C@@H]4CCCC[C@@H]43)C[C@@H]3CCCC[C@@H]32)C[C@@H]2CCCC[C@@H]21 [FKAB-1Gd3, Ac-Gaba-F-Tic-Oic-Gaba-K-Tic-Oic-Gaba-F-Tic-Oic-Gaba-K-Tic-KKKKK-CONH2] (Ac-[GABA]F[Tic][Oic][GABA]K[Tic][Oic][GABA]F[Tic][Oic][GABA]K[Tic]KKKKK-NH2)		10 µM (≈ 26.8 µg/mL)	4.52			4.520	5.520	3 µM	3.00 µM (≈ 8.04 µg/mL)		1.00 µM (≈ 2.68 µg/mL)	29.7%/	10.5%		Minimum Inhibitory Concentration Salmonella typhimurium ([1]; ATCC 13311): 10 µM; selectivity for Mycobacterium ranae over Salmonella typhimurium ([3]; in vitro): 3 fold; Minimum Inhibitory Concentration Bacillus subtillis ([4]; ATCC 43223): 1 µM
